Ends that are not written are not given here.
Key:
S. aureus = test: MIC, broth microdilution assay in polypropylene microtiter trays; type: cell-based; conditions: average of three separate experiments
Experimental: (§1) The biological activity of the peptides can be determined by standard methods known to those of skill in the art, such as Aminimal inhibitory concentration (MIC)≅ assay described in the present examples, whereby the lowest concentration at which no change in OD is observed for a given period of time is recorded as MIC. Alternatively, Afractional inhibitory concentration (FIC)≅ is also useful for determination of synergy between the peptides of the invention, or the peptides in combination with known antibiotics. FICs are performed by checkerboard titrations of peptides in one dimension of a microtiter plate, and of antibiotics in the other dimension, for example. The FIC is calculated by looking at the impact of one antibiotic on the MIC of the other and vice versa. […] Preferably, an FIC of less than 0.5 is obtained for synergism. As used herein, FIC can be determined as follows: [formula]
(§2) A method which employed polypropylene microtiter trays in a broth microdilution assay was developed.

S. aureus K147 = test: as above; type: cell-based; conditions: average of three separate experiments
Experimental: as §1, §2

P. aeruginosa = test: as above; type: cell-based; conditions: average of three separate experiments
Experimental: as §1, §2

S. epidermis = test: as above; type: cell-based; conditions: average of three separate experiments
Experimental: as §1, §2

E. coli = test: as above; type: cell-based; conditions: average of three separate experiments
Experimental: as §1, §2

[1] = system: Pseudomonas aeruginosa strain M2; test: Protection of neutropenic CD-1 mice challenged with Pseudomonas aeruginosa; type: in vivo; design: Survival post bacterial challenge, surviving mice: reference not given here; conditions: for Survival (%) post bacterial challenge: PBS 8
Experimental: CD-1 mice were induced to be neutropenic via 3 intraperitoneal injections of cyclophosphamide ([…]) every another day. Immediately after the third administration of cyclophosphamide, the mice were challenged by intraperitoneal injection of Pseudomonas aeruginosa strain M2 (200-300 organisms/mouse). Cationic peptides (200 µg per mouse=8 mg/kg) in 100 µl buffered citrate were injected intraperitoneally at 30 min (single dose) or 30 min and 16 hrs (double dose) post bacterial challenge, respectively. The data were the average values of 2 individual experiments. PBS was used as a control. […] In general single dose protection studies gave better protection than double dose experiments.

[2] = Lethal endotoxemia in galactosamine-sensitized mice; type: in vivo, CD-1 mice; conditions: peptide 200 μg intraperitoneal within 10 min of 10 μg LPS; 24 hours post injection; 5 mice per group; no peptide 100
Experimental: To confirm this in vivo, endotoxic shock was induced by intraperitoneal injection of 10 μg of E.coli 0111:B4 LPS in phosphate-buffered saline (PBS; pH 7.2) into galactosamine-sensitized 8- to 10- week old female CD-1 mice (5 per group). In experiments involving peptides, 200 μg in 100 μl of sterile water was injected at separate intraperitoneal sites within 10 min of LPS injection. Survival was monitored at 24 hours post injection.

[3] = system: Pseudomonas aeruginosa wild type (K799); type: cell-based; conditions: Mueller Hinton Broth
Experimental: as §1
(§3) These peptides varied in activity (Table 11), however, the C-terminally capped pleurocidin especially and its N-terminally capped lysine derivative had much better activities against a variety of bacteria including Vibrio anguillarum (Va), Aeromonas salmonicida (As), Staphylococcus epidermidis (C621), Salmonella typhimurium wild type (C587) and phoP phoQ mutant (C610), and Pseudomonas aeruginosa wild type (K799) and outer membrane barrier altered (Z61). The antimicrobial peptide CEME, a fusion peptide made from portions of an insect defensin ceropin A and the bee venom peptide melittin (Piers and Hancock, Mol. Microbiol., 12:951-8, 1994), as well as the known antibiotics polymyxin B and gentamicin were used as controls. Replacing the pleurocidin N-terminus with the dermaseptin N-terminus had no effect. Replacing pleurocidin N-terminus with the ceratoxin N-terminus reduced activity. […] Amidating the C-terminus improved antimicrobial activity. Replacing the pleurocidin C-terminus with the misgurin C-terminus had no effect.
(§4) Bacteria included Vibrio anguillarum (Va), Aeromonas salmonicida (As), Staphylococcus epidermidis (C621), Salmonella typhimurium wild type (C587) and phoP phoQ mutant (C6 10), and Pseudomonas aeruginosa wild type (K799) and outer membrane barrier altered (Z61).

[4] = system: Aeromonas salmonicida (As); type: cell-based; conditions: Mueller Hinton Broth
Experimental: as §1, §3, §4

[5] = system: Staphylococcus epidermidis (C621); type: cell-based; conditions: Mueller Hinton Broth
Experimental: as §1, §3, §4

[6] = system: Salmonella typhimurium wild type (C587); type: cell-based; conditions: Mueller Hinton Broth
Experimental: as §1, §3, §4

[7] = system: Pseudomonas aeruginosa outer membrane barrier altered (Z61); type: cell-based; conditions: Mueller Hinton Broth
Experimental: as §1, §3, §4

[8] = system: Salmonella typhimurium phoP phoQ mutant (C610); type: cell-based; conditions: Mueller Hinton Broth
Experimental: as §1, §3, §4

Vibrio anguillarum (Va) = type: cell-based; conditions: Mueller Hinton Broth
Experimental: as §1, §3, §4

| Compound | MIC K799 [3] [µg/mL] | MIC As [4] [µg/mL] | MIC C621 [5] [µg/mL] | MIC C587 [6] [µg/mL] | MIC Z61 [7] [µg/mL] | MIC C610 [8] [µg/mL] | MIC Va (Vibrio anguillarum (Va)) [µg/mL] | also measured |
| --- | --- | --- | --- | --- | --- | --- | --- | --- |
| CC[C@H](C)[C@H](NC(=O)[C@H](CC(C)C)NC(=O)[C@H](C)NC(=O)[C@@H]1CCCN1C(=O)[C@H](CC(C)C)NC(=O)CNC(=O)[C@@H](NC(=O)[C@@H](NC(=O)[C@H](CC(C)C)NC(=O)[C@@H](NC(=O)[C@H](CCCCN)NC(=O)[C@H](CCCCN)NC(=O)[C@@H](NC(=O)[C@H](C)NC(=O)[C@@H](NC(=O)[C@@H](NC(=O)[C@H](CC(C)C)NC(=O)[C@H](CCCCN)NC(=O)[C@H](CCCCN)NC(=O)[C@@H](NC(=O)[C@H](Cc1ccccc1)NC(=O)[C@H](CO)NC(=O)[C@H](CCCCN)NC(=O)[C@H](Cc1c[nH]c2ccccc12)NC(=O)[C@@H](N)CCCCN)[C@@H](C)CC)[C@@H](C)O)[C@@H](C)O)C(C)C)C(C)C)[C@@H](C)O)[C@@H](C)O)C(=O)N[C@@H](CO)C(=O)O [CP-29, reference compound] | – | – | – | – | – | – | – | MIC S. aureus (S. aureus): 19 µg/mL; MIC S. aureus K147 (S. aureus K147): 11 µg/mL; MIC P. aeruginosa (P. aeruginosa): 6 µg/mL; MIC S. epidermis (S. epidermis): 5 µg/mL; MIC E. coli (E. coli): 2 µg/mL; Survival post bacterial challenge, surviving mice ([1]; single dose (200 μg per mouse i.p. at 30 min), 16 hr): 8; Survival post bacterial challenge, surviving mice ([1]; single dose, 24 hr): 8; Survival post bacterial challenge, surviving mice ([1]; single dose, 41 hr): 7; Survival post bacterial challenge, surviving mice ([1]; single dose, 48 hr): 6; Survival post bacterial challenge, surviving mice ([1]; single dose, 64 hr): 4; Survival (%) post bacterial challenge ([1]; single dose, 64 hr): 50%; Survival post bacterial challenge, surviving mice ([1]; single dose, 72 hr): 4; Survival (%) post bacterial challenge ([1]; single dose, 72 hr): 50%; Survival post bacterial challenge, surviving mice ([1]; single dose, 96 hr): 3; Survival (%) post bacterial challenge ([1]; single dose, 96 hr): 37% |
| CC[C@H](C)[C@H](NC(=O)CNC(=O)[C@@H](NC(=O)[C@H](CCCCN)NC(=O)[C@H](CCCCN)NC(=O)[C@H](Cc1ccccc1)NC(=O)[C@H](CC(C)C)NC(=O)[C@H](CCCCN)NC(=O)[C@H](Cc1c[nH]c2ccccc12)NC(=O)[C@@H](N)CCCCN)[C@@H](C)CC)C(=O)NCC(=O)N[C@@H](C)C(=O)N[C@H](C(=O)N[C@@H](CC(C)C)C(=O)N[C@@H](CCCCN)C(=O)N[C@H](C(=O)N[C@@H](CC(C)C)C(=O)N[C@H](C(=O)N[C@H](C(=O)NCC(=O)N[C@@H](CC(C)C)C(=O)N1CCC[C@H]1C(=O)N[C@@H](C)C(=O)N[C@@H](CC(C)C)C(=O)N[C@@H](CCCCN)C(=O)N[C@@H](CC(C)C)C(=O)N[C@H](C(=O)N[C@@H](CCCCN)C(=O)O)[C@@H](C)O)[C@@H](C)O)[C@@H](C)O)C(C)C)C(C)C [CEMA, reference compound] | – | – | – | – | – | – | – | Mortality (%) [2]: 0% |
| ALWKTMLKKAAHVGKHVGKAALGAAARRRK [DER-M] | 64 | 2 | 32 | 32 | 8 | 0.5 | >64 | – |
| gentamicin [reference compound] | <0.5 | <0.5 | 16 | <0.5 | <0.5 | <0.5 | 1 | – |
| RQRVEELSKFSKKGAAARRRK [Peptide M-0, reference compound] | >64 | >64 | >64 | >64 | >64 | >64 | >64 | – |
| ALWKTMLKKAAHVGKHVGKAALTHYL-NH2 [P-DER] | 16 | 1 | 4 | 4 | 8 | 0.5 | 4 | – |

From US6818407B2, “Anti-endotoxic antimicrobial cationic peptides and methods of use therfor” (priority 1998, dated 2004)
